In assay [1] the test system is bacteria causing the soft rot (Erwinia carotovora). Kind of assay: Inhibition test of growth of bacteria causing soft rot, Reference Test Example 6. Conditions: for formed colonies (growth state), grade: PSA medium, 27 degrees Celsius, 3 days. It counts as cell-based. The source says: (§1) An inhibition test of the growth of bacteria causing the soft rot was done, when a control agent was directly applied to the bacteria causing the soft rot. A given volume of each pesticide of fludioxonil (Seibia FL [trade name] manufactured by Syngenta Japan K.K.), iminoctadine albesilate salt (Bellkute WP [trade name], manufactured by Nippon Soda Co., Ltd.), iprodione (Rovral WP [trade name] manufactured by Bayer Crop Science Co., Ltd.), and streptomycin (Mycin Wettable powder [trade name] manufactured by Hokko Chemical Industry Co., Ltd.) was added together with a suspension of the bacteria causing the soft rot (Erwinia carotovora) to a preliminarily dissolved PSA culture medium (55 degrees Celsius) for subsequent thorough agitation, which was then spread on a plate for culturing at 27 degrees Celsius for 3 days, to examine the growth state. Subsequently, the formed colonies were examined according to the following three grades. • +: at the same level as the level of non-treated lot.
(§2) Plus or minus: apparently less than the colonies of the non-treated lot. • −: almost no colonies observed.

For assay [2], the system named is soft rot of Chinese cabbage. Kind of assay: Test for controlling soft rot of Chinese cabbage, Example 1 / Comparative Example 1 (field, cultivar Muso). The format is in vivo. The settings on record: 1/1000 dilution, 300 L/10a sprayed three times on stems and leaves, 54 days after start. Here is the method:
200 g/l Azoxystrobin (Amistar 20 FLOWABLE [trade name], manufactured by Syngenta Japan K.K.) was adjusted to 250 g ai/10a (0.25 g/m^2, 1250 ml Product/10a) as the amount of the active ingredient and to 150 L/10a as the volume of diluent water.
100 g/l Cyazofamid (RANMAN FLOWABLE [trade name], manufactured by Ishihara Sangyo Kaisha, Ltd.) was adjusted to 250 g ai/10a (0.25 g/m^2, 2500 ml Product/10a) as the amount of the active ingredient and to 150 L/10a as the volume of diluent water.
177 g/l Amisulbrom (LEIMAY FLOWABLE [trade name], manufactured by Nissan Chemical Industries, Ltd.) was adjusted individually to 250 g ai/10a (0.25 g/m^2, 1412 ml Product/10a) as the amount of the active ingredient and to 150 L/10a as the volume of diluent water.
After spreading an agricultural mulch-sheet and opening planting holes (diameter of about 9 cm) for permanent planting through the mulch-sheet, the spray solutions prepared as described above were sprayed onto the planting holes such that the amount of treated active ingredient of each spray solution was 0.25 g/m^2 (150 L per 10a), followed by air-drying; subsequently, seedlings of Chinese cabbage (cultivar: Muso) grown for 4 weeks in cell mold trays (128 holes/nursery box) were planted such that 30 seedlings were planted in each test lot having an area of 6 m^2 with two replications.
Preparation was performed by diluting streptomycin (Mycin 20 wettable powder solution [under the trade name] manufactured by Hokko Chemical Industry Co., Ltd.) with water to 1/1000.
In a field spread with the agricultural mulch-sheet, Chinese cabbage seedlings (cultivar: Muso) grown by the same method as in Example 1 were planted by the same method as in Example 1, for spraying the spray solution of streptomycin prepared above in (1) (at each spray volume of 300 L/10a) three times (13 days, 20 days and 27 days after the planting of the seedlings) on the stems and leaves.
54 days after the start of the tests, all the plants in each lot were examined about the severity level of the disease; according to the following equations, the ratio of the plants with the onset of the disease, the frequency of the disease, and the disease control value were calculated to determine and rank the effects at A to D levels. Because soft rot is a disease with damages hardly controlled, herein, even a chemical at the level C determined by the tests of the effects can practically be used.
Ratio of the plants with the onset of the disease=(Number of plants with the onset of the disease/number of plants examined)*100
Frequency of the disease=[sigma(number of plants with the onset of the disease at each severity level*index of the onset of the disease)/(plants examined*4)]*100 […]

Assay [3] relates to bacteria causing the soft rot (Erwinia carotovora). Kind of assay: Inhibition test of growth of bacteria causing soft rot, Reference Test Example 5. The format is cell-based. The settings on record: for formed colonies (growth state), grade: PSA medium, 27 degrees Celsius, 2 days. Here is the method:
as §1, with “mepanipyrim (Flupika” for “fludioxonil (Seibia”, “by” for “by Syngenta Japan K.K.), iminoctadine albesilate salt (Bellkute WP [trade name], manufactured by”, “Ltd.)” for “Ltd.), iprodione (Rovral WP [trade name] manufactured by Bayer Crop Science Co., Ltd.),”, “2” for “3”
as §2

Assay [4] has the same test system. Kind of assay: Inhibition test of growth of bacteria causing soft rot, Reference Test Example 3. The format is cell-based. The settings on record: for formed colonies (growth state), grade: PSA medium, 27 degrees Celsius, 2 days. The source says:
Inhibition test of growth of bacteria causing soft rot of potato An inhibition test of the growth of bacteria causing the soft rot was done, when a control agent was directly applied to the bacteria causing the soft rot. A given volume of each pesticide of triflumizol (TRIFUMIN WP [trade name] manufactured by Nippon Soda Co., Ltd.), chlorothalonil (Daconil 1000 [trade name], manufactured by Sumitomo Chemical Company, Limited) and streptomycin (Mycin Wettable powder [trade name] manufactured by Hokko Chemical Industry Co., Ltd.) was added together with a suspension of the bacteria causing the soft rot (Erwinia carotovora) to a preliminarily dissolved PSA culture medium (55 degrees Celsius) for subsequent thorough agitation, which was then spread on a plate for culturing at 27 degrees Celsius for 2 days, to examine the growth state. Subsequently, the formed colonies were examined according to the following three grades. • +: at the same level as the level of non-treated lot. Plus or minus: apparently less than the colonies of the non-treated lot. • −: almost no colonies observed.

Setting [5] is: active ingredient concentration of 10 ppm.

As to `[H]/N=C(/N)N[C@H]1[C@H](O)[C@@H](O)[C@H](O[C@@H]2O[C@@H](C)[C@](O)(C=O)[C@H]2O[C@@H]2O[C@@H](CO)[C@H](O)[C@@H](O)[C@@H]2NC)[C@@H](N/C(N)=N\[H])[C@@H]1O` [Streptomycin], the “formed colonies (growth state), grade” value in assay [1] (1 ppm active ingredient) is recorded as “+, +”; in assay [1] (10 ppm active ingredient), “−, ±”; in assay [3] (1 ppm active ingredient), “+, ±”; in assay [3] (10 ppm active ingredient), “−, −”; in assay [4] (1 ppm active ingredient), “+, ±”; in assay [4] (10 ppm active ingredient) it was “−, −”. Besides, the “direct antibacterial activity against Erwinia carotovora (in words)” value in assay [1] (setting [5]), in assay [3] (setting [5]) and in assay [4] (setting [5]) was “exerted a direct antibacterial activity” each time. The Determination of effect result in assay [2] is listed as “D (D: Poorly effective (20 or smaller disease control value))”.

The record behind these values is patent publication US20130123287A1, “CONTROL AGENT FOR SOFT ROT AND CONTROL METHOD FOR THE SAME” (ISHIHARA SANGYO KAISHA, LTD., priority 2010, published 2013).
